Measured values as given in ChEMBL document CHEMBL1135112, “Shikonin derivatives: synthesis and inhibition of human telomerase” (Bioorg Med Chem Lett, 2002).
Each block holds one molecule with its values, some of them ahead of it. Activity calls are given as the source filed them. The rule behind the calls is not given here.

Legend:
[1] = test system: P388; experiment: The compound was tested in vitro for its cytotoxicity against […] P-388 cancer cell line by MTT method at 1 uM concentration; No inhibition; type: functional, cell-based; settings: Mus musculus
[2] = test system: A549; experiment: The compound was tested in vitro for its cytotoxicity against human A-549 cancer cell line by MTT method at 1 uM concentration; No inhibition; type: functional, cell-based
[3] = test system: HL-60; experiment: The compound was tested in vitro for its cytotoxicity against human HL-60 cancer cell line by MTT method at 1 uM concentration; Slight inhibition; type: functional, cell-based
[4] = test system: P388; experiment: The compound was tested in vitro for its cytotoxicity against […] P-388 cancer cell line by MTT method at 1 uM concentration; Slight inhibition; type: functional, cell-based; settings: Mus musculus
[5] = test system: A549; experiment: The compound was tested in vitro for its cytotoxicity against human A-549 cancer cell line by MTT method at 1 uM concentration; Slight inhibition; type: functional, cell-based
[6] = biological target: T1, DNA polymerase I, thermostable (Thermus aquaticus, UniProt P19821); experiment: Tested for 50% inhibition against Taq DNA polymerase at the concentration of 10 uM; No inhibition
[7] = test system: A549; experiment: Tested in vitro for inhibitory effect on the growth of human A-549 cancer cell line; type: functional, cell-based
[8] = biological target: T1, DNA polymerase I, thermostable; experiment: Tested for 50% inhibition against Taq DNA polymerase at the concentration of 50 uM; No inhibition
[9] = biological target: Telomerase reverse transcriptase (Homo sapiens, UniProt O14746); experiment: Tested for 50% inhibition against Telomerase
[10] = test system: A549; experiment: The compound was tested in vitro for its cytotoxicity against human A-549 cancer cell line by MTT method at 1 uM concentration; Significant inhibition; type: functional, cell-based
[11] = biological target: T1, DNA polymerase I, thermostable; experiment: Tested for 50% inhibition against Taq DNA polymerase at the concentration of 20 uM; No inhibition
[12] = test system: K562; experiment: Tested in vitro for inhibitory effect on the growth of K-562 cell line; type: functional, cell-based; settings: Homo sapiens
[13] = test system: MCF7; experiment: Tested in vitro for inhibitory effect on the growth of MCF-7 cell line; type: functional, cell-based; settings: Homo sapiens
[14] = test system: HL-60; experiment: The compound was tested in vitro for its cytotoxicity against human HL-60 cancer cell line by MTT method at 1 uM concentration; Significant inhibition; type: functional, cell-based
[15] = test system: WI-38; experiment: Tested in vitro for inhibitory effect on the growth of WI-38 cell line; No cytotoxicity; type: functional, cell-based, Homo sapiens
[16] = test system: Bel-7402; experiment: Tested in vitro for inhibitory effect on the growth of BEL -7402 cell line; type: functional, cell-based; settings: Homo sapiens
[17] = test system: SGC-7901; experiment: Tested in vitro for inhibitory effect on the growth of human gastric carcinoma SGC-7901 cell line; type: functional, cell-based
[18] = test system: HL-60; experiment: The compound was tested in vitro for its cytotoxicity against human HL-60 cancer cell line by MTT method at 1 uM concentration; Total inhibition; type: functional, cell-based
[19] = test system: P388; experiment: The compound was tested in vitro for its cytotoxicity against […] P-388 cancer cell line by MTT method at 1 uM concentration; Total inhibition; type: functional, cell-based
[20] = test system: HL-60; experiment: The compound was tested in vitro for its cytotoxicity against human HL-60 cancer cell line by MTT method at 1 uM concentration; No inhibition; type: functional, cell-based

T1 sequence (P19821 whole entry): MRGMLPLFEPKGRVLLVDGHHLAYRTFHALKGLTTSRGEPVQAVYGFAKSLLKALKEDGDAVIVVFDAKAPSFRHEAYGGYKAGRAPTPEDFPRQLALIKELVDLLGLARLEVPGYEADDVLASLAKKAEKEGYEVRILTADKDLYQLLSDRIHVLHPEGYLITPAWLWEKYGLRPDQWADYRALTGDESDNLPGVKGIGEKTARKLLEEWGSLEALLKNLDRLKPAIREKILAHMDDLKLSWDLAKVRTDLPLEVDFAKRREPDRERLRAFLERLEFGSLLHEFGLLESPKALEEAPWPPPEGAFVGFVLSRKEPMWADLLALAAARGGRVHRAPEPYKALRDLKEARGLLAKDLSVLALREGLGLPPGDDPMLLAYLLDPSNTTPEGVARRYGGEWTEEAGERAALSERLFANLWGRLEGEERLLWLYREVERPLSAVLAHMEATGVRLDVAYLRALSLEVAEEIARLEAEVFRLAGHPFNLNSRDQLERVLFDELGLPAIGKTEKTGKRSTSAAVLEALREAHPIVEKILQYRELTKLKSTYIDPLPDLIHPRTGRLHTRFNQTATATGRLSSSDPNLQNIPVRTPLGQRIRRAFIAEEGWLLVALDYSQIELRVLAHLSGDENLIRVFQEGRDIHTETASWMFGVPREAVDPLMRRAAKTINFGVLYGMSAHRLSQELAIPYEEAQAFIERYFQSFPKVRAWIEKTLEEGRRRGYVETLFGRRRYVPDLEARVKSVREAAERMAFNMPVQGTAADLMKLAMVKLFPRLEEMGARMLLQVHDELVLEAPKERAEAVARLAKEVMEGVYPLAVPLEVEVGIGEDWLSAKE
Telomerase reverse transcriptase, sequence (O14746 whole entry): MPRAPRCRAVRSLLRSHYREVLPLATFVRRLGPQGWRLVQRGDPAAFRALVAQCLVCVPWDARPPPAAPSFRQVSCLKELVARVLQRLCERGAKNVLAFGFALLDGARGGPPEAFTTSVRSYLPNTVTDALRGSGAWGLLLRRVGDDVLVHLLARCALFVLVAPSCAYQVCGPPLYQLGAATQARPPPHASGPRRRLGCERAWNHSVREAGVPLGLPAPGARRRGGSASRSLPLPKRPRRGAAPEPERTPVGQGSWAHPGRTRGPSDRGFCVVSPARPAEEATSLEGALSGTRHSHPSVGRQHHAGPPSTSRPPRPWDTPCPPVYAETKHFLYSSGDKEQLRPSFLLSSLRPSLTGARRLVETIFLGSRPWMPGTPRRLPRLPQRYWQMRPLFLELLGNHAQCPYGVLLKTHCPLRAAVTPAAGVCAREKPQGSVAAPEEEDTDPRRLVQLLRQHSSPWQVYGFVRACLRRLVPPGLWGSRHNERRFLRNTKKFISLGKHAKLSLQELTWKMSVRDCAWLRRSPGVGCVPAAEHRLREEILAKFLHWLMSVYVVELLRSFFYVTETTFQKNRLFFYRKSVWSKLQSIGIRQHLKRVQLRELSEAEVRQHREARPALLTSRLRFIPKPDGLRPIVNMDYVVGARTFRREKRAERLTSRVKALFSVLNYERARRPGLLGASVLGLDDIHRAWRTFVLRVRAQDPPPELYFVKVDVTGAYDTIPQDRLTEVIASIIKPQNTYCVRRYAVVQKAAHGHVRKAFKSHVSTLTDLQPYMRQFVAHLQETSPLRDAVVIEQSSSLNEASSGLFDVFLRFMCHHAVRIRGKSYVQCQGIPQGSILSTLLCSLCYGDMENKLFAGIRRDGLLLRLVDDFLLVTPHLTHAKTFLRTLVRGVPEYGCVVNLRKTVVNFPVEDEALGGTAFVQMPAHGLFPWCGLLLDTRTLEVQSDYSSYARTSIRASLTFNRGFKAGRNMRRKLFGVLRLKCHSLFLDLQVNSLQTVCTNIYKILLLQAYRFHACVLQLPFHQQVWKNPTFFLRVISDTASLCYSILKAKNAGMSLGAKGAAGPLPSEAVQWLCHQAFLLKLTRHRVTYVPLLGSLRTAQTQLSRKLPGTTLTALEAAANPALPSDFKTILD

SMILES: CC(C)=CCC(OC(=O)c1cccnc1)C1=CC(=O)c2c(O)ccc(O)c2C1=O (centres undefined)
Activity [1]: inactive
Activity [2]: inactive
Activity [3]: Slight inhibition

SMILES: CC(C)=CC[C@@H](O)C1=CC(=O)c2c(O)ccc(O)c2C1=O
Activity [4]: Slight inhibition
Activity [5]: Slight inhibition
Activity [3]: Slight inhibition

IC50 [6]: Not Active
IC50 [7]: 39 µM
IC50 [8]: Not Active
IC50 [9]: 37.3 µM
IC50 [11]: Not Active
IC50 [12]: 29 µM
IC50 [13]: 31 µM
IC50 [16]: 0.068 µM
IC50 [17]: 0.29 µM
SMILES: CC(=O)O[C@H](CC=C(C)C)C1=CC(=O)c2c(O)ccc(O)c2C1=O [ACETYLSHIKONIN]
Activity [10]: Significant inhibition
Activity [4]: Significant inhibition
Activity [14]: Significant inhibition
IC50 [15]: No cytotoxicity

SMILES: CCCCCCCCCCCC(=O)OC(CC=C(C)C)C1=CC(=O)c2c(O)ccc(O)c2C1=O (centres undefined)
Activity [1]: inactive
Activity [5]: Slight inhibition
Activity [3]: Slight inhibition

IC50 [7]: 390 µM
IC50 [12]: 31 µM
IC50 [13]: 93 µM
IC50 [16]: 67 µM
IC50 [17]: 49 µM
SMILES: CC(C)=CCC(OC(=O)c1ccc2ccccc2c1)C1=CC(=O)c2c(O)ccc(O)c2C1=O (centres undefined)
Activity [1]: inactive
Activity [2]: inactive
IC50 [15]: No cytotoxicity
Activity [3]: Slight inhibition

SMILES: CC(C)=CCC(OC(=O)c1cccc2ccccc12)C1=CC(=O)c2c(O)ccc(O)c2C1=O (centres undefined)
Activity [1]: inactive
Activity [2]: inactive
Activity [3]: Slight inhibition

SMILES: CC(C)=CCC(OC(=O)COCc1ccccc1)C1=CC(=O)c2c(O)ccc(O)c2C1=O (centres undefined)
Activity [1]: inactive
Activity [2]: inactive

SMILES: CC1(C)CC[C@H](C2=CC(=O)c3c(O)ccc(O)c3C2=O)O1
Activity [18]: Total inhibition
Activity [19]: Total inhibition
Activity [2]: inactive

SMILES: CCCC(=O)OC(CC=C(C)C)C1=CC(=O)c2c(O)ccc(O)c2C1=O (centres undefined)
Activity [1]: inactive
Activity [2]: inactive
Activity [3]: Slight inhibition

SMILES: CC(C)=CCC(OC(=O)Cc1c[nH]c2ccccc12)C1=CC(=O)c2c(O)ccc(O)c2C1=O (centres undefined)
Activity [1]: inactive
Activity [2]: inactive
Activity [3]: Slight inhibition

SMILES: CC(C)=CCC(OC(=O)COc1ccc2ccccc2c1)C1=CC(=O)c2c(O)ccc(O)c2C1=O (centres undefined)
Activity [1]: inactive
Activity [2]: inactive
Activity [3]: Slight inhibition

SMILES: CC(C)=CC[C@H](O)C1=CC(=O)c2c(O)ccc(O)c2C1=O
Activity [4]: Slight inhibition
Activity [5]: Slight inhibition
Activity [3]: Slight inhibition

IC50 [7]: 0.016 µM
IC50 [12]: 18 µM
IC50 [13]: 250 µM
IC50 [16]: 0.00017 µM
IC50 [17]: 0.001 µM
SMILES: CC(C)=CCC(OC(=O)CCCCC(C)C)C1=CC(=O)c2c(O)ccc(O)c2C1=O (centres undefined)
Activity [10]: Significant inhibition
Activity [1]: inactive
IC50 [15]: No cytotoxicity
Activity [3]: Significant inhibition

SMILES: CC(C)=CCC(OC(=O)c1ccccc1)C1=CC(=O)c2c(O)ccc(O)c2C1=O (centres undefined)
Activity [20]: inactive
Activity [1]: inactive
Activity [2]: inactive

SMILES: CC(C)=CCC(O)C1=CC(=O)c2c(O)ccc(O)c2C1=O (centres undefined)
Activity [4]: Slight inhibition
Activity [5]: Slight inhibition
Activity [3]: Slight inhibition

SMILES: CC1(C)CC[C@@H](C2=CC(=O)c3c(O)ccc(O)c3C2=O)O1
Activity [18]: Total inhibition
Activity [19]: Total inhibition
Activity [2]: inactive
